Assay results taken from patent publication US20230122967A1, “NOVEL COMPOUNDS AS INHIBITORS OF PCSK9” (SHENGKE PHARMACEUTICALS (JIANGSU) LTD., priority 2020, published 2023).

Experiments:
Format in all cases: cell-based
HepG2 cells = experiment: Cell viability assay (HepG2 Survival assay, CellTiter-Glo); details: 24 hr, cellular ATP levels
Experimental: (§1) HepG2 cells (ATCC, Cat.: HB-8065) were maintained in Growth medium-Eagle's Minimum Essential Medium (Corning, 10-010-CVR), 10% FBS (Gibco, 10099-141), Penicillin (100 units/mL), Streptomycin ([…]). HepG2 cells were incubated at 37° C., 5% CO2. HepG2 cells were plated in black clear bottom 96-well plates (Corning, 3063) at 40,000 cells/well in 100 μL of growth media. After an overnight incubation, the culture media were changed to serum-free OptiMEM media (Gibco, 31985-062), 90 μL/well. Vehicle, PF-06446846 hydrochloride, berberine, or test compound was added to the culture media, 10 μL/well. After 24 hr cellular ATP levels were measured using CellTiter-Glo® 2.0 Assay (Promega, G9242).

PCSK9 mRNA = experiment: RT-Q-PCR analysis of PCSK9 mRNA in HepG2 cells; details: Homo sapiens, 24 h, normalized to GAPDH, read-out: HepG2 Q-PCR PCSK9 mRNA level decrease (10 μM)
Experimental: HepG2 cells (ATCC, Cat.: HB-8065) were maintained in Growth medium-Eagle's Minimum Essential Medium (Corning, 10-010-CVR), 10% FBS (Gibco, 10099-141), Penicillin (100 units/mL), Streptomycin ([…]). HepG2 cells were incubated at 37° C., 5% CO2.
Cells were cultured in growth medium as described above and treated with the vehicle, Berberine or test compound for 24 h. The RNA was extracted using the Total RNA mini Kit (Tiangen, Beijing, China) according to the manufacturer's instructions. Reverse transcription was carried out using the High-Capacity cDNA reverse transcription kit (Thermo Fisher Scientific). Quantitative real-time PCR was performed using a reaction mixture containing cDNA, specific primers [PCSK9, 5′-[…]-3′ (forward) and 5′-[…]-3′ (reverse); GAPDH, 5′-[…]-3′ (forward) and 5′-[…]-3′ (reverse)] and Maxima SYBR Green/ROX qPCR Master Mix (Thermo Fisher Scientific). PCR amplification was carried out in a Real-Time PCR System. The real-time PCR conditions were 37° C. 10 min; 95° C. 10 min; 95° C. 15 s, 60° C. 30 s, 72° C. 30 s, 40 cycle. The amount of % RNA was normalized to the GAPDH level in the same samples.

PCSK9 = PCSK9 ELISA on HepG2 culture medium; details: HepG2 cells, 24 hr
Experimental: as §1, with “flat” for “black clear”, “3599)” for “3063)”, “medium was harvested, and 10 μL of the medium” for “cellular ATP levels”, “used for the PCSK9 ELISA (R&D Systems, SPC900).” for “measured using CellTiter-Glo® 2.0 Assay (Promega, G9242).”

Row | SMILES | HepG2 Survival assay (10 μM) (HepG2 cells) | inhibition at 10 µM (PCSK9 mRNA) | HepG2 PCSK9 ELISA (10 μM) % inhibition (PCSK9)
1 | CN(C(=O)CN(CC(=O)NCc1ccccc1F)C(=O)c1cc2cccc(F)c2[nH]1)c1ccc(Oc2ccc(F)cc2)cc1 [Compound 201-46] | 100% | 46% | 33%
2 | O=C(CN(CC(=O)Nc1ccc(Oc2ccc(C(F)(F)F)cc2)cc1)C(=O)c1cc2cccc(F)c2[nH]1)Nc1ccccc1 [Compound 201-255] | 101% | 72% | 87%
3 | O=C(CN(CC(=O)Nc1ccc(Oc2ccccc2)cc1)C(=O)c1cc2ccccc2[nH]1)NCc1ccccc1F [Compound 201-43] | 100% | 77% | 60%
4 | O=C(CN(CC(=O)Nc1ccc(Oc2ccccc2)cc1)C(=O)c1cc2cccc(F)c2[nH]1)Nc1ccccc1 [Compound 201-258] | 97% | – | 69%
5 | CN(Cc1ccccc1F)C(=O)CN(CC(=O)Nc1ccc(Oc2ccccc2)cc1)C(=O)c1ccco1 [Compound 201-127] | 90% | 92% | 74%
6 | CN(C(=O)CN(CC(=O)NC1Cc2ccccc2C1)C(=O)c1cc2cccc(F)c2[nH]1)c1ccc(Oc2ccc(F)cc2)cc1 [Compound 201-14] | 93% | 89.5% | 41%
7 | N#Cc1cccc2cc(C(=O)N(CC(=O)Nc3ccc(Oc4ccc(C(F)(F)F)cc4)cc3)CC(=O)NC3CCCC3)[nH]c12 [Compound 201-237] | 98% | 77% | 72%
8 | CN(Cc1ccccc1)C(=O)CN(CC(=O)Nc1ccc(Oc2ccccc2)cc1)C(=O)c1cc2c(F)cccc2[nH]1 [Compound 201-51] | 93% | 75% | 55%
9 | CN(Cc1ccccc1)C(=O)CN(CC(=O)Nc1ccc(Oc2ccc(F)cc2)cc1)C(=O)c1cc2cc(F)ccc2[nH]1 [Compound 201-53] | 100% | 80% | 50%
10 | CN(Cc1ccccc1F)C(=O)CN(CC(=O)Nc1ccc(Oc2ccc(F)c(F)c2)cc1)C(=O)c1ccco1 [Compound 201-133] | 100% | 92% | 98%
11 | CN(Cc1ccccc1)C(=O)CN(CC(=O)N(C)c1ccc(Oc2ccccc2)cc1)C(=O)c1cc2c(F)cccc2[nH]1 [Compound 201-52] | 100% | 79% | 45%
12 | O=C(CN(CC(=O)Nc1ccc(Oc2ccc(F)cc2)cc1)C(=O)c1cc2cc(F)ccc2[nH]1)NCc1ccccc1F [Compound 201-37] | 100% | 63% | 50%
13 | O=C(CN(CC(=O)Nc1ccc(Oc2ccc(C(F)(F)F)cc2)cc1)C(=O)c1ccc(C(F)(F)F)o1)NCc1ccccc1 [Compound 201-209] | 92% | – | 91%
14 | CN(Cc1ccccc1F)C(=O)CN(CC(=O)Nc1ccc(Oc2ccc(F)c(F)c2)cc1)C(=O)c1cc2ccccc2o1 [Compound 201-97] | 100% | 37% | 48%
15 | CN(Cc1ccccc1)C(=O)CN(CC(=O)N(C)c1ccc(Oc2ccc(F)cc2)cc1)C(=O)c1cc2cc(F)ccc2[nH]1 [Compound 201-54] | 100% | 61% | 52%
16 | CN(Cc1ccccc1)C(=O)CN(CC(=O)Nc1ccc(Oc2ccc(F)cc2)cc1)C(=O)c1cc2c(F)cccc2[nH]1 [Compound 201-49] | 100% | 77% | 50%
17 | CN(Cc1ccccc1)C(=O)CN(CC(=O)N(C)c1ccc(Oc2ccc(F)cc2)cc1)C(=O)c1cc2c(F)cccc2[nH]1 [Compound 201-50] | 100% | 77% | 47%
18 | CN(Cc1ccccc1F)C(=O)CN(CC(=O)Nc1ccc(Oc2ccccc2)cc1)C(=O)c1cc2ccccc2o1 [Compound 201-91] | 100% | 58% | 40%
19 | CC(C)c1ccc(Oc2ccc(NC(=O)CN(CC(=O)NCc3ccccc3)C(=O)c3ccc(C(F)(F)F)[nH]3)cc2)cc1 [Compound 201-249] | 97% | – | 85%
20 | O=C(CN(CC(=O)Nc1ccc(Oc2ccc(F)c(F)c2)cc1)C(=O)c1cc2cccc(F)c2[nH]1)Nc1ccccc1 [Compound 201-274] | 98% | 88% | 77%
21 | O=C(CN(CC(=O)NC1Cc2ccccc2C1)C(=O)c1cc2cccc(F)c2[nH]1)Nc1ccc(Oc2ccc(F)cc2)cc1 [Compound 201-13] | 97% | 93.3% | 64%
22 | O=C(CN(CC(=O)Nc1ccc(Oc2ccc(F)cc2)cc1)C(=O)c1cc2cccc(F)c2[nH]1)NCc1ccccc1F [Compound 201-45] | 100% | 80% | 60%
23 | O=C(CN(CC(=O)Nc1ccc(Oc2ccccc2)cc1)C(=O)c1cc2cccc(F)c2[nH]1)NCc1ccccc1F [Compound 201-47] | 99% | 90% | 70%
24 | O=C(CN(CC(=O)Nc1ccc(Oc2ccc(F)cc2)cc1)C(=O)c1cc2ccccc2[nH]1)NCc1ccccc1F [Compound 201-41] | 100% | 75% | 72%
25 | O=C(CN(CC(=O)NC1Cc2ccccc2C1)C(=O)c1cc2cccc(F)c2[nH]1)Nc1ccc(Oc2ccccc2)cc1 [Compound 201-15] | 100% | 95.2% | 46%
26 | O=C(CN(CC(=O)Nc1ccc(Oc2ccc(C(F)(F)F)cc2)cc1)C(=O)c1ccc(C(F)(F)F)[nH]1)Nc1ccccc1 [Compound 201-263] | 88% | – | 84%
27 | CN(Cc1ccccc1F)C(=O)CN(CC(=O)Nc1ccc(Oc2ccc(F)cc2)cc1)C(=O)c1cc2ccccc2o1 [Compound 201-85] | 100% | 70% | 46%
28 | CN(Cc1ccccc1F)C(=O)CN(CC(=O)Nc1ccc(Oc2ccc(F)cc2)cc1)C(=O)c1cc2cccc(F)c2[nH]1 [Compound 201-69] | 92% | 78% | 80%
29 | CC(C)c1ccc(Oc2ccc(NC(=O)CN(CC(=O)NC3CCCC3)C(=O)c3ccc(C(F)(F)F)[nH]3)cc2)cc1 [Compound 201-235] | 101% | 72% | 73%
30 | CC(C)c1ccc(Oc2ccc(NC(=O)CN(CC(=O)Nc3ccccc3)C(=O)c3ccc(C(F)(F)F)o3)cc2)cc1 [Compound 201-261] | 99% | – | 60%
